Source: ChEMBL document CHEMBL4033603, “Spongian-16-one Diterpenes and Their Anatomical Distribution in the Australian Nudibranch Goniobranchus collingwoodi” (J Nat Prod, 2017)

Legend:
Format in all cases: functional, cell-based
[1] = test system: SW-620; experiment: Cytotoxicity against human SW620 cells assessed as reduction in cell viability after 48 hrs by MTT assay; settings: SW-620, 48 h
[2] = test system: HepG2; experiment: Cytotoxicity against human HepG2 cells assessed as reduction in cell viability after 48 hrs by MTT assay; settings: HepG2, 48 h
[3] = test system: NCI-H460; experiment: Cytotoxicity against human NCI-H460 cells assessed as reduction in cell viability after 48 hrs by MTT assay; settings: NCI-H460, 48 h
[4] = test system: L1210; experiment: Cytotoxicity against mouse L1210 cells assessed as reduction in cell viability
[5] = test system: KB; experiment: Cytotoxicity against human KB cells assessed as reduction in cell viability

Row | SMILES | IC50 [1] [µM] | IC50 [2] [µM] | IC50 [3] [µM] | IC50 [4] [µM] | IC50 [5] [µM]
1 | CCC(=O)OC[C@]12CCCC(C)(C)[C@@H]1C[C@@H](OC(=O)CC(C)C)[C@@]1(C)[C@@H]3COC(=O)[C@@H]3C[C@H](O)[C@H]21 | > 30 | > 30 | > 30 |  | 
2 | CCC(=O)OC[C@]12CCCC(C)(C)[C@@H]1CC[C@@]1(C)[C@@H]3COC(=O)[C@@H]3[C@@H](OC(C)=O)C[C@@H]12 | > 30 | > 30 | > 30 |  | 
3 | CC1(C)CCC[C@]2(C)[C@H]3CC[C@H]4C(=O)OC[C@H]4[C@]3(C)CC[C@@H]12 |  |  |  | 16.4 | 30.2
4 | CCC(=O)OC[C@]12CCCC(C)(C)[C@@H]1CC[C@@]1(C)[C@@H]3COC(=O)[C@@H]3C[C@H](OC(C)=O)[C@@H]12 | > 30 | > 30 | > 30 |  | 
5 | CC(=O)OC[C@]12CCCC(C)(C)[C@@H]1CC[C@@]1(C)[C@@H]3COC(=O)[C@@H]3[C@@H](OC(C)=O)C[C@@H]12 | > 30 | > 30 | > 30 |  | 
6 | CC(=O)O[C@@H]1C[C@H]2C(C)(C)CCC[C@]2(C)[C@H]2CC[C@H]3C(=O)OC[C@H]3[C@@]21C |  |  |  | 6.1 | 44.1
7 | CCC(=O)O[C@@H]1C[C@H]2C(=O)OC[C@H]2[C@@]2(C)[C@H]1[C@@]1(C)CCCC(C)(C)[C@@H]1C[C@H]2OC(=O)CC(C)C | > 30 | > 30 | > 30 |  | 
8 | CC(=O)OC[C@]12CCCC(C)(C)[C@@H]1CC[C@@]1(C)[C@@H]3COC(=O)[C@@H]3C[C@H](OC(C)=O)[C@@H]12 | > 30 | > 30 | > 30 |  | 
